The values that follow come from patent publication US11952349B2, “Anti-cancer nuclear hormone receptor-targeting compounds” (Nuvation Bio Inc., priority 2019, dated 2024).

Each structure is given as a SMILES string. Numbering of substitutions follows the chain as printed.

The target of assay [1] is T1, AR, cytosol from LnCaP cells (Homo sapiens, UniProt P10275, T878A).
T1 construct: AR in LNCaP cytosol was used; endogenous in cells; host or cells: LNCaP cells (cytosol)
T1 sequence (P10275 1-920 T878A): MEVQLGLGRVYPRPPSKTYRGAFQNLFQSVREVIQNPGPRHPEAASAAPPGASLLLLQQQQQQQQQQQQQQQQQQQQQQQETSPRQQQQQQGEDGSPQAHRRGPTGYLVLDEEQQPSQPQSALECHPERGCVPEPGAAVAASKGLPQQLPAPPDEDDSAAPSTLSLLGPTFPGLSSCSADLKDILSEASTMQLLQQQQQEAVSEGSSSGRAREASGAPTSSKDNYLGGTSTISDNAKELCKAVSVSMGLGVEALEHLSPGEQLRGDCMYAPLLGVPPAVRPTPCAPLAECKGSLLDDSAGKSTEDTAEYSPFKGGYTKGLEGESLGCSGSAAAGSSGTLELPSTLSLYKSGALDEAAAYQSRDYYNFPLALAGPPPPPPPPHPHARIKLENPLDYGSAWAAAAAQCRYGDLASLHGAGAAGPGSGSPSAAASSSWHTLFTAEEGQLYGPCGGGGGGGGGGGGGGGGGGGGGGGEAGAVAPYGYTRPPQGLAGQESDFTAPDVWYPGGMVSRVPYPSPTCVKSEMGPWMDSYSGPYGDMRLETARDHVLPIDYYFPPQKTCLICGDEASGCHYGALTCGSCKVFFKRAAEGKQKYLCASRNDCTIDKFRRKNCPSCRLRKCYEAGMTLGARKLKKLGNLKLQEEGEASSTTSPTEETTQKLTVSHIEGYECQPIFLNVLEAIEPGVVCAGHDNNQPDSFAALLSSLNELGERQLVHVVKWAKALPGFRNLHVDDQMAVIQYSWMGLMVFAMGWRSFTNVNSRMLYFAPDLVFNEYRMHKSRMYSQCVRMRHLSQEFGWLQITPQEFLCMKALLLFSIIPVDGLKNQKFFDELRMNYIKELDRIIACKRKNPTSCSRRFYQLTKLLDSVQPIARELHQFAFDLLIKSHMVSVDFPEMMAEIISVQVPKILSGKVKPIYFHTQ
Kind of assay: AR binding assay, 3H-R1881 (Biological Example 2). Here is the method: AR binding assay: To assess AR binding, test compound (top dose […], 4 fold serial dilution, 8 point dose response) and control (progesterone) were transferred to the assay plate. Cytosol from LnCaP cells was added to the plate, followed by addition of radiolabeled ^3H-R1881 at a final concentration of 1 nM. The plate was sealed, and the reaction was incubated at 300 rpm at 4° C. for 24 hrs. Radioligand absorption buffer (10 mM Tris-HCl, pH 7.4; 1.5 mM EDTA; 1 mM DTT; 0.25% charcoal; 0.0025% dextran) was then added to the plate, mixed, and incubated at 4° C. for 15 minutes. The plate was then centrifuged at 3000 rpm for 30 minutes at 4° C. The supernatant was transferred to the scint-tube and Tri-carb was used for scintillation counting. The data was analyzed using GraphPadPrism v5.0 and binding IC50 was determined as the concentration where 50% inhibition of radioligand binding was observed.

Assay [2] addresses T2, full-length androgen receptor (Homo sapiens, UniProt P10275).
T2 construct: HEK293 cells stably expressing the full-length androgen receptor; expressed in transfected cells
T2 sequence (P10275 1-920): T1 sequence (P10275 1-920 T878A) with A878T
Kind of assay: AR antagonism assay (HEK293, testosterone 1 nM, Steady-glo). It counts as cell-based. Here is the method:
AR antagonism assay: To evaluate AR antagonist activity, test compound was added to the assay plate (top dose 10 μM, 3 fold serial dilution, 10 point dose response). HEK293 cells stably expressing the full-length androgen receptor were seeded at a density of 20000 cells/well in the assay plate. The assay plate was then incubated at room temperature for 10 minutes and at 37° C., 5% CO2 for 20 minutes. Testosterone was added to the assay plate at 1 nM final concentration and the assay plate was incubated at 37° C., 5% CO2 for 20 h. After the incubation period, Steady-glo was added to the assay plate and mixed at room temperature for 20 minutes on an orbital shaker, before reading out on the EnVision plate reader.

The test system of another assay is LNCap cells. Kind of assay: Cell viability assay (CellTiterGlo, 6 days) LNCap. The class given is cell-based. Particulars: Homo sapiens, 144 h, Table 7. The procedure:
(§1) Cell viability assay: LNCap, 22Rv1, and T47D cells were seeded at a density of 1500-2000 cells/well in 96 well plates, and a ‘T0’ (timepoint 0) was included along with the assay plate. The plates were then incubated at 37° C., 5% CO2 in a cell culture incubator overnight. On the next day, the ‘T0’ plate was assayed using CellTiterGlo (Promega, Inc) according to the manufacturer's instructions. The appropriate compounds were diluted in DMSO and added to the assay plate (final DMSO concentration of 0.2%) on the next day. The assay plates were incubated for 6 days at 37° C., 5% CO2. After the incubation period, the plates were assayed using CellTiterGlo (Promega, Inc) according to the manufacturer's instructions and luminescence was read on the EnVision plate reader. Inhibition the tested compounds was determined by the following formula: Inhibition rate (%)=(1−(RLU compound−RLU day0)/(RLU control−RLU day0))*100%. GraphPadPrism was used to analyze the data and determine absolute IC50 values.
(In general: In ATP-based viability assays light output follows the ATP content of the culture.)

The test system of the next assay is 22Rv1 cells. Kind of assay: Cell viability assay (CellTiterGlo, 6 days) 22Rv1. It counts as cell-based. Particulars: Homo sapiens, 22Rv1, 144 h; Table 7; cell viability, 6 days; read-out: 22RV1. The procedure: as §1

In the case of `C[C@]12C=CC(=O)C[C@@H]1CC[C@@H]1[C@@H]2CC[C@]2(C)[C@@H](OCCCCCC(=O)N3CCN(C(=O)c4cc(Cc5n[nH]c(=O)c6ccccc56)ccc4F)CC3)CC[C@@H]12` [Compound 1410, 4-(3-(4-(6-((5S,8R,9S,10R,13S,14S,17S)-10,13-dimethyl-3-oxo-4,5,6,7,8,9, 10,11,12,13,14,15,16,17-tetradecahydro-3H-cyclopenta[a]phenanthren-17-yloxy)hexanoyl)piperazine-1-carbonyl)-4-fluorobenzyl)phthalazin-1(2H)-one], the IC50 in assay [1] was 10 to 100 nM; in assay [2], 100 to 1000 nM; with LNCap cells it was 100 to 1000 nM; in the assay with 22Rv1 cells, 100 to 1000 nM.
